From US8163931B2, “Treatment of CRTH2-mediated diseases and conditions” (Oxagen Limited, priority 2003, dated 2012)

Key:
CRTH2 [1] = target: T1, CRTH2 (Homo sapiens, UniProt Q9Y5Y4); assay: [3H]PGD2 radioligand binding on CHO/CRTH2 cell membranes; settings: competition versus [3H]PGD2, CHO/CRTH2 membranes
T1 construct: expressed in transfected cells; host or cells: Chinese Hamster Ovary (CHO) cells, G418-selected (CHO/CRTH2)
T1 sequence (Q9Y5Y4 1-395): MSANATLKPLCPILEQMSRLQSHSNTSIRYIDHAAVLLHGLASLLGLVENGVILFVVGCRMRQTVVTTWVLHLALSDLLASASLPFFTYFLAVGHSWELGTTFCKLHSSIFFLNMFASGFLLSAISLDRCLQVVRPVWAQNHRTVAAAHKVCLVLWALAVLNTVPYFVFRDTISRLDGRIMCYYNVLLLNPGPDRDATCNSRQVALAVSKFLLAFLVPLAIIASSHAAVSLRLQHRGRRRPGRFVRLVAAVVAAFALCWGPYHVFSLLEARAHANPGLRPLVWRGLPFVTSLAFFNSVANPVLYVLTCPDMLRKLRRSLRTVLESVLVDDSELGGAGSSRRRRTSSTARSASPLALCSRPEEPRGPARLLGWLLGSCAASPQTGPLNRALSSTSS
Description: (§1) Chinese Hamster Ovary cells were transfected with CRTH2 or DP receptors (CHO/CRTH2 and CHO/DP) and were maintained in culture in a humidified atmosphere at 37° C. (5% CO2) in Minimum Essential Medium (MEM) supplemented with 10% foetal bovine serum, 2 mM glutamine, and 1 mg ml^−1 active G418. The cells were passaged every 2-3 days. For radioligand binding assay, cells were prepared in triple-layer flasks or in 175 cm^2 square flasks (for membrane preparation). For calcium mobilisation assay, cells were grown in a 96 well plate 24 h prior to the assay at a density of 80,000 cells per well.
(§2) Membranes were prepared either from CHO/CRTH2 and CHO/DP cells, or from platelets (as a source of TP receptors). CHO cells grown to confluency were washed with PBS and detached using a Versene solution (15 ml per flask). When the cells were grown in 175 cm^2 square flask, they were collected by scrapping in PBS. The cell suspensions were centrifuged (1,700 rpm, 10 min, 4° C.) and resuspended in 15 ml of buffer (1×HBSS, supplemented with 10 mM HEPES, pH 7.3). Cell suspensions were then homogenised using an Ultra Turrax at setting 4-6 for 20 s. The homogenate was centrifuged at 1,700 rpm for 10 min and the supernatant was collected and centrifuged at 20,000 rpm for 1 h at 4° C. The resulting pellet was resuspended in buffer and stored at −80° C. in aliquots of 200-500 μl. The protein concentration was determined by the method of Bradford (1976), using bovine serum albumin as standard. The platelets were washed by centrifugation at 600×g for 10 min and resuspended in ice-cold assay buffer (10 mM Tris-HCl, pH 7.4, 5 mM Glucose, 120 mM NaCl, 10 μM indomethacin) and directly centrifuged at 20,000 rpm for 30 min at 4° C. The resulting pellet was treated as described above.
(§3) [^3H]PGD2 (160 Ci/mmol) binding experiments were performed on membranes prepared as described above. Assays were performed in a final volume of 100 μl of buffer (1×HBSS/HEPES 10 mM, pH 7.3). Cell membranes (15 μg). Cell membranes […] were preincubated at room temperature with varying concentration of competing ligand for 15 min. [^3H]PGD2 (mol, final concentration) was then added and the incubation continued for a further one hour at room temperature. The reaction was terminated by the addition of 200 μl ice-cold assay buffer to each well, followed by rapid filtration through Whatman GF/B glass fibre filters using a Unifilter Cell harvester (PerkinElmer Life Sciences) and six washes of 300 μl of ice-cold buffer. The Unifilter plates were dried at room temperature for at least 1 h and the radioactivity retained on the filters was determined on a Beta Trilux counter (PerkinElmer Life Sciences), following addition of 40 μl of Optiphase Hi-Safe 3 (Wallac) liquid scintillation. Non specific binding was defined in the presence of 10 μM unlabelled PGD2. Assays were performed in duplicate.

CRTH2 [2] = target: T1, CRTH2; assay: Calcium mobilisation assay in CHO/CRTH2 cells (PGD2-induced calcium flux); type: cell-based; settings: for IC50: read-out: IC50, inhibition of PGD2-induced calcium flux
Description: as §1
Cells were seeded onto poly-D-lysine coated 96-well plates at a density of 80,000 cells per well and incubated at 37° C. overnight to allow the cells to adhere. Cells were washed twice with HBSS and incubated for 1 h at 37° C. in 100 μl HBSS and 100 μl calcium-3-dye (Molecular Devices), supplemented with 4 mM probenecid. Changes in fluorescence were monitored over a 50 s time course with agonist addition at 17 s using a Flexstation (Molecular Devices).

DP receptor = target: T2, DP receptor (Homo sapiens, UniProt Q13258); assay: [3H]PGD2 radioligand binding on CHO/DP cell membranes; settings: competition versus [3H]PGD2, CHO/DP membranes
T2 construct: expressed in transfected cells; host or cells: Chinese Hamster Ovary (CHO) cells, G418-selected (CHO/DP)
T2 sequence (Q13258 1-359): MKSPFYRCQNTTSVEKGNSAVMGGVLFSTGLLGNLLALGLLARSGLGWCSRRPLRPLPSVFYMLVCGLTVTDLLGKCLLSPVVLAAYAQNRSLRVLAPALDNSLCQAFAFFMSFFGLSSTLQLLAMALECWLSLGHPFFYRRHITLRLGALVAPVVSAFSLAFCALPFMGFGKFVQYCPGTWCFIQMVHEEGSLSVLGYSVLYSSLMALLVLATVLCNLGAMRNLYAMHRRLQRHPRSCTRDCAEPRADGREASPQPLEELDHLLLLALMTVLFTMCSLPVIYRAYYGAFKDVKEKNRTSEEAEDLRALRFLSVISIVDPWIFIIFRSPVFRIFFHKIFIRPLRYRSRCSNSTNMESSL
Description: as §1, §2, §3

SMILES	Ki (CRTH2 [1])	IC50 (CRTH2 [2])	Ki (DP receptor)	EC50 (CRTH2 [2]; agonist, n=3, read-out: EC50, increase in intracellular Ca2+ mobilisation)
Cc1c(Cc2ccc3cc(F)ccc3n2)c2cc(F)ccc2n1CC(=O)O [Compound 18, [5-Fluoro-3-(6-fluoro-quinolin-2-ylmethyl)-2-methyl-indol-1-yl]-acetic acid]	1.3 ± 0.6 nM	10 ± 5 nM	7740 ± 1440 nM	
Cc1c(Cc2ccc(Cl)cc2)c2cc(F)ccc2n1CC(=O)O [Compound 12, [3-(4-Chloro-benzyl)-5-fluoro-2-methyl-indol-1-yl]-acetic acid]	11 ± 2 nM	108 ± 29 nM	12200 ± 2250 nM	
Cc1c(C(C)c2ccc(S(C)(=O)=O)cc2)c2cc(F)ccc2n1CC(=O)O (stereo not shown) [Compound 4, {5-Fluoro-3-[1-(4-methanesulfonyl-phenyl)-ethyl]-2-methyl-indol-1-yl}-acetic acid]	5 ± 4 nM	55 ± 18 nM	30400 ± 9810 nM	
CCCCC[C@H](O)/C=C/[C@H]1C(=O)C[C@H](O)[C@@H]1C/C=C\CCCC(=O)O [PGD2, prostaglandin D2, reference compound]				2.4 ± 0.5 nM
Cc1c(Cc2ccc(S(C)(=O)=O)cc2)c2cc(F)ccc2n1CC(=O)O [Compound 17, [5-Fluoro-3-(4-methanesulfonyl-benzyl)-2-methyl-indol-1-yl]-acetic acid]		64 ± 5 nM		
COc1ccc(Cc2c(C)n(CC(=O)O)c3ccc(F)cc23)cc1 [Compound 10, [5-Fluoro-3-(4-methoxy-benzyl)-2-methyl-indol-1-yl]-acetic acid]		47 ± 8 nM		
Cc1c(C(C)c2nc3ccccc3s2)c2cc(F)ccc2n1CC(=O)O (racemic) [Compound 19, (±)-3-(1-Benzothiazol-2-yl-ethyl)-5-fluoro-2-methyl-indol-1-yl]-acetic acid]		34 ± 7 nM		
O=C(O)Cn1cc(Cc2nc3c(F)c(F)cc(F)c3s2)c2ccccc21 [Compound 20, [3-(4,5,7-Trifluoro-benzothiazol-2-ylmethyl)-indol-1-yl]-acetic acid, reference compound]	886 ± 248 nM	885 ± 96 nM	3960 nM	
Cc1c(Cc2ccc3ccccc3n2)c2cc(F)ccc2n1CC(=O)O [Compound 6, (5-Fluoro-2-methyl-3-quinolin-2-ylmethyl-indol-1-yl)-acetic acid]			17900 ± 7290 nM	
Cc1c(Cc2nc3ccccc3s2)c2cc(F)ccc2n1CC(=O)O [Compound 13, (3-Benzothiazol-2-ylmethyl-5-fluoro-2-methyl-indol-1-yl)-acetic acid]	6 ± 1 nM			
Cc1c(Cc2ccc3cccc(O)c3n2)c2cc(F)ccc2n1CC(=O)O [Compound 8, [5-Fluoro-3-(8-hydroxy-quinolin-2-ylmethyl)-2-methyl-indol-1-yl]-acetic acid]	6 ± 4 nM	11 ± 6 nM	7710 ± 1780 nM	
Cc1c(Cc2ccc3ccccc3c2)c2cc(F)ccc2n1CC(=O)O [Compound 7, (5-Fluoro-2-methyl-3-naphthalen-2-ylmethyl-indol-1-yl)-acetic acid]		38 ± 16 nM		
